Assay results from PMC4822888, “Subtype-Selective Small Molecule Inhibitors Reveal a Fundamental Role for Nav1.7 in Nociceptor Electrogenesis, Axonal Conduction and Presynaptic Release” (PLoS ONE, 2016).

Legend:
[1] = target: Norepinephrine transporter (Homo sapiens, UniProt P23975); assay: Off target activity panel; format: binding; conditions: read-out: Inhibition at test concentration (%)
[2] = system: cynomolgus TRPV1 receptor; assay: Blockade of cynomolgus TRPV1 receptor; conditions: tested concentrations up to 10 μM
Acetylcholinesterase = Acetylcholinesterase (Homo sapiens, UniProt P22303); assay: Off target activity panel; format: biochemical; conditions: read-out: Inhibition at test concentration (%)
Muscarinic M2 receptor = Muscarinic M2 receptor (Homo sapiens, UniProt P08172); assay: Off target activity panel; format: binding; conditions: read-out: Inhibition at test concentration (%)
Dopamine D3 receptor = Dopamine D3 receptor (Homo sapiens, UniProt P35462); assay: Off target activity panel; format: binding; conditions: read-out: Inhibition at test concentration (%)
Adenosine A2a receptor = Adenosine A2a receptor (Homo sapiens, UniProt P29274); assay: Off target activity panel; format: binding; conditions: read-out: Inhibition at test concentration (%)
Urotensin receptor = Urotensin receptor (Homo sapiens, UniProt Q9UKP6); assay: Off target activity panel; format: binding; conditions: read-out: Inhibition at test concentration (%)
[3] = system: Muscle-type nicotinic receptor; assay: Off target activity panel; format: binding; conditions: 10 µM
[4] = target: Cholycystokinin 1 (CCKA) receptor (Homo sapiens, UniProt P32238); assay: Off target activity panel; format: binding; conditions: read-out: Inhibition at test concentration (%)
Dopamine transporter = Dopamine transporter (Homo sapiens, UniProt Q01959); assay: Off target activity panel; format: binding; conditions: read-out: Inhibition at test concentration (%)
Muscarinic M3 receptor = Muscarinic M3 receptor (Homo sapiens, UniProt P20309); assay: Off target activity panel; format: binding; conditions: read-out: Inhibition at test concentration (%)
[5] = system: Nictotinic acetylcholine receptor; assay: Off target activity panel; format: binding; conditions: 10 µM
Serotonin 5-HT2C [6] = target: T1, Serotonin 5-HT2C (Homo sapiens, UniProt P28335); assay: Off target activity panel (second 5-HT2C line); format: binding; conditions: read-out: Inhibition at test concentration (%)
[7] = target: Cholycystokinin 2 (CCKB) receptor (Homo sapiens, UniProt P32239); assay: Off target activity panel; format: binding; conditions: read-out: Inhibition at test concentration (%)
Serotonin 5-HT1A = Serotonin 5-HT1A (Homo sapiens, UniProt P08908); assay: Off target activity panel; format: binding; conditions: read-out: Inhibition at test concentration (%)
Cyclooxygenase 1 = Cyclooxygenase 1 (Homo sapiens, UniProt P23219); assay: Off target activity panel; format: biochemical; conditions: read-out: Inhibition at test concentration (%)
[8] = Off target activity panel; format: binding; conditions: read-out: Inhibition at test concentration (%)
[9] = system: NMDA receptor (phencyclidine site); assay: Off target activity panel; format: binding; conditions: 10 µM
Histamine H1 receptor = Histamine H1 receptor (Homo sapiens, UniProt P35367); assay: Off target activity panel; format: binding; conditions: read-out: Inhibition at test concentration (%)
PDE6 = assay: Off target activity panel; format: biochemical; conditions: 10 µM
GABA Benzodiazepine site = assay: Off target activity panel; format: binding; conditions: 10 µM
Histamine H3 receptor = Histamine H3 receptor (Homo sapiens, UniProt Q9Y5N1); assay: Off target activity panel; format: binding; conditions: read-out: Inhibition at test concentration (%)
[10] = target: Angiotensin converting enzyme (Homo sapiens, UniProt P12821); assay: Off target activity panel; format: biochemical; conditions: read-out: Inhibition at test concentration (%)
Lyn A kinase = Lyn A kinase (Homo sapiens, UniProt P07948); assay: Off target activity panel; format: biochemical
Mu opiod receptor = Mu opiod receptor (Homo sapiens, UniProt P35372); assay: Off target activity panel; format: binding; conditions: read-out: Inhibition at test concentration (%)
Choline transporter = Choline transporter (Homo sapiens, UniProt Q9GZV3); assay: Off target activity panel; format: binding; conditions: read-out: Inhibition at test concentration (%)
[11] = target: Serotonin 5-HT transporter (Homo sapiens, UniProt P31645); assay: Off target activity panel; format: binding; conditions: read-out: Inhibition at test concentration (%)
[12] = system: Calcium channel L-type (dihydropyridine site); assay: Off target activity panel; format: binding; conditions: 10 µM
Adenosine A3 receptor = Adenosine A3 receptor (Homo sapiens, UniProt P0DMS8); assay: Off target activity panel; format: binding; conditions: read-out: Inhibition at test concentration (%)
p38alpha kinase = p38alpha kinase (Homo sapiens, UniProt Q16539); assay: Off target activity panel; format: biochemical; conditions: read-out: Inhibition at test concentration (%)
[13] = target: Adrenergic alpha 2B receptor (Homo sapiens, UniProt P18089); assay: Off target activity panel; format: binding; conditions: read-out: Inhibition at test concentration (%)
Serotonin 5-HT1B = Serotonin 5-HT1B (Homo sapiens, UniProt P28222); assay: Off target activity panel; format: binding; conditions: read-out: Inhibition at test concentration (%)
Neurokinin NK2 receptor = Neurokinin NK2 receptor (Homo sapiens, UniProt P21452); assay: Off target activity panel; format: binding; conditions: read-out: Inhibition at test concentration (%)
Delta opioid receptor = Delta opioid receptor (Homo sapiens, UniProt P41143); assay: Off target activity panel; format: binding; conditions: read-out: Inhibition at test concentration (%)
Serotonin 5-HT2C [14] = target: T1, Serotonin 5-HT2C; assay: Off target activity panel (first 5-HT2C line); format: binding; conditions: read-out: Inhibition at test concentration (%)
L-type calcium channels = assay: Blockade of L-type calcium channels
[15] = target: Adrenergic alpha 2A receptor (Homo sapiens, UniProt P08913); assay: Off target activity panel; format: binding; conditions: read-out: Inhibition at test concentration (%)
FLT-1 kinase = FLT-1 kinase (Homo sapiens, UniProt P17948); assay: Off target activity panel; format: biochemical; conditions: read-out: Inhibition at test concentration (%)
Sigma receptor = assay: Off target activity panel; format: binding; conditions: 10 µM

T1 sequence (P28335 33-458): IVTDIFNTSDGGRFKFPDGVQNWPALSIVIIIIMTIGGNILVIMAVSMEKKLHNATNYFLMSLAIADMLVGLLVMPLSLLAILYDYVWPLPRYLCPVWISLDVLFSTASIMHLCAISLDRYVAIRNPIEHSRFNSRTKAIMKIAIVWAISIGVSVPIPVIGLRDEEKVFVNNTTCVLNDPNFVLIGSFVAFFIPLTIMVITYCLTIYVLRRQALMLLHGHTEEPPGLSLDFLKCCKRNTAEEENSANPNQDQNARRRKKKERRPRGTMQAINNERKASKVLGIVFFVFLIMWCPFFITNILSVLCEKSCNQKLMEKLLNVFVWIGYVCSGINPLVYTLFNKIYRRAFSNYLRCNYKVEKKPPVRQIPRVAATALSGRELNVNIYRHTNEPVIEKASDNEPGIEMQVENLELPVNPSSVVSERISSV
Sequence of Lyn A kinase (P07948 whole entry): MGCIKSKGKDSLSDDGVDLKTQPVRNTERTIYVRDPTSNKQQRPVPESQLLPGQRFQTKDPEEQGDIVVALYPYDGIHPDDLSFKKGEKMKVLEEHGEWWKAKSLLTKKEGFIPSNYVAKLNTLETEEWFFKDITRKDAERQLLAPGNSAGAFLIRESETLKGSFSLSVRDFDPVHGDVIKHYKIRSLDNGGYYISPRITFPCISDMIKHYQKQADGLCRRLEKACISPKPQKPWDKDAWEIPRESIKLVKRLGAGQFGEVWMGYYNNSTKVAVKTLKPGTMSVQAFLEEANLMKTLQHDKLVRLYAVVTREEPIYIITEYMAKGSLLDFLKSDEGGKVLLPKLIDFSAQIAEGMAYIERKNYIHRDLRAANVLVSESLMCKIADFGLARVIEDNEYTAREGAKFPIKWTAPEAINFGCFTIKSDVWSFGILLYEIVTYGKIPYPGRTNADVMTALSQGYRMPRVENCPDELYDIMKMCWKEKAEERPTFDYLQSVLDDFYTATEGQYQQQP
Sequence of Angiotensin converting enzyme (P12821 30-1306): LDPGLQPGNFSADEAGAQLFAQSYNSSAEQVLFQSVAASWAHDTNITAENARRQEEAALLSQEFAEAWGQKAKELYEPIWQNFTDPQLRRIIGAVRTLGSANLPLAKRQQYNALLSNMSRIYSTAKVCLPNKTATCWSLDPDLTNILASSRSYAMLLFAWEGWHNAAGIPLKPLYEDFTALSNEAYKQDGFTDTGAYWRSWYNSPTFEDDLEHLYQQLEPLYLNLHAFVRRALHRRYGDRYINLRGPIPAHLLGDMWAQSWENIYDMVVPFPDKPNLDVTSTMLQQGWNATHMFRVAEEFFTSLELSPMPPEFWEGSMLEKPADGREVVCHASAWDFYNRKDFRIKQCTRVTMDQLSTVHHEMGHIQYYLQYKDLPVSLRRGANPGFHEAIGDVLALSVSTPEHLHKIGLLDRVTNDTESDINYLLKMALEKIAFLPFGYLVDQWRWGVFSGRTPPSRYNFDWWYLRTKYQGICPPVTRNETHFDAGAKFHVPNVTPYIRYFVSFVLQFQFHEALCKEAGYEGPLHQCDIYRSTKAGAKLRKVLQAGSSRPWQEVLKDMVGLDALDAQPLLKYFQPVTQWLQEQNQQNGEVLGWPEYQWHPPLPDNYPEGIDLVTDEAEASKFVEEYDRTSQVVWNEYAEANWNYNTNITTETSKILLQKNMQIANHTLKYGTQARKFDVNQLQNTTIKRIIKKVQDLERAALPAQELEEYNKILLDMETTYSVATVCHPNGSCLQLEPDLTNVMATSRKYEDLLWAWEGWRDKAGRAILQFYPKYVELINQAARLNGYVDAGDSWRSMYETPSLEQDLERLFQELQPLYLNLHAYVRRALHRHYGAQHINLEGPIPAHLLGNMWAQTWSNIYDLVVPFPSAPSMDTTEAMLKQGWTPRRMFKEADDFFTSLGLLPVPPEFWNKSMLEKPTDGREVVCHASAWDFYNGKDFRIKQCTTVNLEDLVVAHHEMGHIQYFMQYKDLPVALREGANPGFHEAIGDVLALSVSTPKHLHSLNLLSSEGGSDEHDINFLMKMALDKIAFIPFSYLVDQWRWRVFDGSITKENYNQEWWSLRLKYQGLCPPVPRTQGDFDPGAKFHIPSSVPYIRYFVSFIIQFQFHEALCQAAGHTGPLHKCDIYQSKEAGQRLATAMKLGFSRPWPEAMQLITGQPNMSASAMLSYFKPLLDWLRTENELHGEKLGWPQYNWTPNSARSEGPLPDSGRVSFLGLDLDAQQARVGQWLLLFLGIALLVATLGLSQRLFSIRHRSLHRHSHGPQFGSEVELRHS
Sequence of Cyclooxygenase 1 (P23219 24-599): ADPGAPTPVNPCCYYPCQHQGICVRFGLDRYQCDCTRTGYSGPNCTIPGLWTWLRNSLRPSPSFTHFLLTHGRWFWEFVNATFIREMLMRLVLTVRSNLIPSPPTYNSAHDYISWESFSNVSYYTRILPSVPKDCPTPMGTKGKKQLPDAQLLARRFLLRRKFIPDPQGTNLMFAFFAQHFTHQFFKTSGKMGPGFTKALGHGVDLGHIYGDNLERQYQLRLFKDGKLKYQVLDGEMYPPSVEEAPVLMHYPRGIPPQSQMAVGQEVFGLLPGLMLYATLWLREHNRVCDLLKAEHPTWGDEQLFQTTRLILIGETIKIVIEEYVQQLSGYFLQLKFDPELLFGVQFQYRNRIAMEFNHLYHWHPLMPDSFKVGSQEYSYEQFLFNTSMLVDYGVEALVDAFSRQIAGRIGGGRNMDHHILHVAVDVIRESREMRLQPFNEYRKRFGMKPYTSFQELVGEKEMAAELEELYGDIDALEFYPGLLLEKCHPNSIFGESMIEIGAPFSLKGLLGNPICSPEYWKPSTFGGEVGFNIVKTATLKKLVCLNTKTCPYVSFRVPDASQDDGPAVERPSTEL
Sequence of FLT-1 kinase (P17948 27-1338): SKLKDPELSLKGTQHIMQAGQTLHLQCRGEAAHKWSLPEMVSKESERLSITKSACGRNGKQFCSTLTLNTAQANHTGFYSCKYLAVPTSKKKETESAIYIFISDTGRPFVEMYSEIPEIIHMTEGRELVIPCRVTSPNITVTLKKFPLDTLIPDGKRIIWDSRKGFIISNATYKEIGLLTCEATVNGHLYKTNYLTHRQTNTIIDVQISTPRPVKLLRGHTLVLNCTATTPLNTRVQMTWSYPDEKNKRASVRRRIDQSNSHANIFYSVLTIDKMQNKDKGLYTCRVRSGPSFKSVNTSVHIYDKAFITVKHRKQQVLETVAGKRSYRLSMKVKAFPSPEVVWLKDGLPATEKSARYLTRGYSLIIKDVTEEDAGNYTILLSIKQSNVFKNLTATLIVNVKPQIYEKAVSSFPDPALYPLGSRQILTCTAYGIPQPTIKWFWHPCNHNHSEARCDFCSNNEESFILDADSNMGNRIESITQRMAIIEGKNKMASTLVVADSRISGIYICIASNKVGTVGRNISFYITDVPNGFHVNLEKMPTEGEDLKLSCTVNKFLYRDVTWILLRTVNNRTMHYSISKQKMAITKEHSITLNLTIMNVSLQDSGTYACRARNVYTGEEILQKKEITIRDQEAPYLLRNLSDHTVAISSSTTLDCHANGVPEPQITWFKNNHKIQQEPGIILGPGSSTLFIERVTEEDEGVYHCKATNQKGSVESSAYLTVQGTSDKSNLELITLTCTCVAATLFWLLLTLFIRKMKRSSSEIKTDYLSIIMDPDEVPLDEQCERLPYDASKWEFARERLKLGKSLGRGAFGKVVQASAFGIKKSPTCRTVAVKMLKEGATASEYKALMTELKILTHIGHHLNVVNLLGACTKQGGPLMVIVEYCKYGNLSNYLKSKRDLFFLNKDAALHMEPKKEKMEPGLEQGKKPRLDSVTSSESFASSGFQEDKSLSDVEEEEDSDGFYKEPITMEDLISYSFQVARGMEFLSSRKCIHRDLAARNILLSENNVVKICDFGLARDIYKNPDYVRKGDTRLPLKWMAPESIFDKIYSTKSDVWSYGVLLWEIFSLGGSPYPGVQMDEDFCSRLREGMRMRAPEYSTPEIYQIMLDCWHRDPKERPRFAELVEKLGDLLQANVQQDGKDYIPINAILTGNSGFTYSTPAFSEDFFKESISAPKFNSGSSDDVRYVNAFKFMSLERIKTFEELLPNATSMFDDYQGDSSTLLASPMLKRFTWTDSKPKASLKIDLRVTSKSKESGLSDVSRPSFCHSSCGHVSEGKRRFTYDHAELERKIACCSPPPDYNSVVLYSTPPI
Sequence of Norepinephrine transporter (P23975 whole entry): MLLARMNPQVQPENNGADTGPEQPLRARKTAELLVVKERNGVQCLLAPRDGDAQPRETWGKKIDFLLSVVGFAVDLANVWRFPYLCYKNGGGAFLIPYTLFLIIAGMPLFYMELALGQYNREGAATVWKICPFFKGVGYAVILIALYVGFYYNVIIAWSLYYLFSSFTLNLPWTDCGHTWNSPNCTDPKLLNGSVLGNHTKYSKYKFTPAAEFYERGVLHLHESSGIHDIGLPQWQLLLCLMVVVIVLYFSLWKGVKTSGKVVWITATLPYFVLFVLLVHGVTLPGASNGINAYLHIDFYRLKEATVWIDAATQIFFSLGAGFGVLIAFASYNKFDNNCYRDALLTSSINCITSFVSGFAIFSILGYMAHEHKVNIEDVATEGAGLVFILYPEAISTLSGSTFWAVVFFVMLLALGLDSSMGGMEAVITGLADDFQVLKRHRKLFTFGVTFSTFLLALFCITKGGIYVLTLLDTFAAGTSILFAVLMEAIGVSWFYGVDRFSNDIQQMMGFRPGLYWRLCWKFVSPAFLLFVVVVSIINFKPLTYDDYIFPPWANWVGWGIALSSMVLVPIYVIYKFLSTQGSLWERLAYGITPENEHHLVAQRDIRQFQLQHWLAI
Sequence of Adenosine A3 receptor (P0DMS8 whole entry): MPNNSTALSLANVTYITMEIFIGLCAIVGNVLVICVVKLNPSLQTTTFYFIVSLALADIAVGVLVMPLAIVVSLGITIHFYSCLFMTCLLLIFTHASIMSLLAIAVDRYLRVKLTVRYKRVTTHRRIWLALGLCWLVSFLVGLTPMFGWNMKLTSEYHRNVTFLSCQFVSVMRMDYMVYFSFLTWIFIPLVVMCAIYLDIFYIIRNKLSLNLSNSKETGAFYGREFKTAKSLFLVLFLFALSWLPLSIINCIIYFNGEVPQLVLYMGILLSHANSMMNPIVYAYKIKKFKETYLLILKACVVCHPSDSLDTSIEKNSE

**Q.** What does the source list for `Nc1[nH]ncc1-c1cc(Cl)ccc1Oc1cc(F)c(S(=O)(=O)Nc2cscn2)cc1Cl` [PF-05089771, 4-[2-(5-amino-1H-pyrazol-4-yl)-4-chlorophenoxy]-5-chloro-2-fluoro-N-(1,3-thiazol-4-yl)benzenesulfonamide]?
**A.** inhibition at 10 µM [1]: 27%; Blockade of cynomolgus TRPV1 receptor [2]: No blockade; inhibition at 10 µM (Acetylcholinesterase): 17%; inhibition at 10 µM (Muscarinic M2 receptor): 3%; inhibition at 10 µM (Dopamine D3 receptor): 16%; inhibition at 10 µM (Adenosine A2a receptor): 15%; inhibition at 10 µM (Urotensin receptor): 32%; Inhibition at test concentration (%) [3]: 2%; inhibition at 10 µM [4]: 17%; inhibition at 10 µM (Dopamine transporter): 18%; inhibition at 10 µM (Muscarinic M3 receptor): 16%; Inhibition at test concentration (%) [5]: -7%; inhibition at 10 µM (Serotonin 5-HT2C [6]): 4%; inhibition at 10 µM [7]: 13%; inhibition at 10 µM (Serotonin 5-HT1A): 13%; inhibition at 10 µM (Cyclooxygenase 1): 18%; inhibition at 10 µM [8]: 64%; Inhibition at test concentration (%) [9]: -3%; inhibition at 10 µM (Histamine H1 receptor): 12%; Inhibition at test concentration (%) (PDE6): 7%; Inhibition at test concentration (%) (GABA Benzodiazepine site): 5%; inhibition at 10 µM (Histamine H3 receptor): 10%; inhibition at 10 µM [10]: -4%; inhibition at 10 µM (Lyn A kinase; 10 µM, read-out: Inhibition at test concentration (%)): 51%; Ki (Lyn A kinase; Lyn A kinase): 7.3 µM; inhibition at 10 µM (Mu opiod receptor): 7%; inhibition at 10 µM (Choline transporter): 18%; inhibition at 10 µM [11]: 0%; Inhibition at test concentration (%) [12]: 4%; inhibition at 10 µM (Adenosine A3 receptor): 4%; inhibition at 10 µM (p38alpha kinase): 8%; inhibition at 10 µM [13]: 24%; inhibition at 10 µM (Serotonin 5-HT1B): 6%; inhibition at 10 µM (Neurokinin NK2 receptor): -10%; inhibition at 10 µM (Delta opioid receptor): 15%; inhibition at 10 µM (Serotonin 5-HT2C [14]): -4%; IC50 (L-type calcium channels): 10 µM; inhibition at 10 µM [15]: 10%; inhibition at 10 µM (FLT-1 kinase): 14%; Inhibition at test concentration (%) (Sigma receptor): -8%
